Measured values taken from ChEMBL document CHEMBL3507680, “University of Dundee, Gates Library screen for HepG2 cell viability”.

Assay: Human HepG2 cell viability assay in 384 well format
Assay type: toxicity, cell-based
Set-up: dose 125 nL, time 70.5 hour; cytotoxicity at 70.5 h: concentration not given beside the values
Details: HepG2 cells, read-out: Inhibition

SMILES	cytotoxicity at 70.5 h
Cc1cnn(CC2CCCCN2CCCS(C)(=O)=O)c1 (stereo not drawn)	-2.88%
COc1ccc(C(=O)N2CCCC(n3cc(C)cn3)C2)c(F)c1 (stereo not drawn)	-3.25%
Cc1ncncc1C(=O)N1CCCC(n2cccn2)C1 (stereo not drawn)	8.65%
COc1ccc(CC(=O)N2CCCC(n3cc(C)cn3)C2)c(OC)c1 (stereo not drawn)	-6.34%
Cc1cnn(CC2CCCN2CCCS(C)(=O)=O)c1 (stereo not drawn)	-2.25%
Cn1cc(CCC(=O)N2CCCC(n3cncn3)C2)cn1 (stereo not drawn)	-0.386%
COc1ccc(CC(=O)N2CCCC(n3cccn3)C2)cc1F (stereo not drawn)	-6.84%
CCc1nc(C2CCCN2C(=O)c2ccc3c(c2)COC3)no1 (stereo not drawn)	-2.9%
NC(=O)C1CCN(C(=O)NCc2ccccc2-n2cccn2)C1 (stereo not drawn)	-4.02%
O=C(c1ccn(-c2ccccc2)n1)N1CCCC(n2cccn2)C1 (stereo not drawn)	-0.6%
CN(C(=O)Cc1ccc(F)cc1)C1CCN(c2ccccn2)CC1	-1.36%
CCNc1cc2c(nn1)CCN(C(=O)c1cc3ccccc3o1)C2	-6.18%
Cc1cnn(CC2CCCCN2C(=O)c2ccc3nncn3c2)c1 (stereo not drawn)	-3.43%
CCc1nc(C2CCCN2C(=O)c2ccc3c(c2)nnn3C)no1 (stereo not drawn)	16.3%
Cc1nc(CC(=O)N2CCCCC2Cn2cccn2)cs1 (stereo not drawn)	25.2%
Cc1cnc(CN(C)C2CCN(Cc3nc4ccccc4s3)C2)o1 (stereo not drawn)	51.7%
Cc1ccc(C(=O)N(C)Cc2cc(C)on2)cn1	-2.86%
CCN1CCN(c2ccc(CNC(=O)c3cnn(C)c3C)cn2)CC1	-8.48%
CCOc1ncccc1CNC(=O)NC(C)Cn1cccn1 (stereo not drawn)	25.9%
Cc1cc(CN(C)C(=O)c2ccc(N(C)C)nc2)no1	-7.16%
COc1ccccc1N1CCN(C(=O)NC(C)c2nncn2C)CC1 (stereo not drawn)	-5.73%
CC(NC(=O)N(C)CCCOc1ccccc1)c1nncn1C (stereo not drawn)	-5.85%
COc1ncccc1CNC(=O)NCCNS(C)(=O)=O	-2.56%
CC(NC(=O)N(C)CCOc1ccccc1F)c1nncn1C (stereo not drawn)	-4.64%

SMILES	cytotoxicity at 70.5 h
Cc1ccccc1OCCN(C)C(=O)NC(C)c1nncn1C (stereo not drawn)	-6.52%
CCOc1ccc(C(=O)N2CCCS2(=O)=O)cc1OC	-4.2%
Cc1cccc(N2CCN(C(=O)NC(C)c3nncn3C)CC2)c1C (stereo not drawn)	-3.82%
CC(NC(=O)N1CCN(c2ccccc2O)CC1)c1nncn1C (stereo not drawn)	1.59%
CCN1CCN(c2ccc(CNC(=O)c3ccccc3F)cn2)CC1	-0.777%
Cc1ccc(C)c(S(=O)(=O)CCN2CCc3c(ncn3C)C2)c1	16%
CCCC(=O)N(C)CC(=O)Nc1ccc(Br)cn1	-2.34%
c1cnn(CC2CCCCN2Cc2nc(-c3ccsc3)no2)c1 (stereo not drawn)	-4.27%
CCc1nc(C2CCCN2C(=O)c2cnc[nH]2)no1 (stereo not drawn)	-7.25%
Cc1cc(NC(=O)CN(CC2CCOC2)C2CC2)no1 (stereo not drawn)	0.647%
CCc1nc(C2CCCN2C(=O)c2ccc(N3CCCC3)nn2)no1 (stereo not drawn)	-3.36%
CC(C)c1noc(C(C)N2CCN(Cc3nnc(C4CC4)o3)CC2)n1 (stereo not drawn)	-3.65%
Cc1nc(C2CCCN(C(=O)COCc3ccccc3)C2)no1 (stereo not drawn)	-12.6%
Cc1nc(C)n(CC2CN(CCCOc3ccc(F)cc3)CCO2)n1 (stereo not drawn)	-17.9%
CS(=O)(=O)c1cccc(C(=O)NCCCN2CCc3ccccc3C2)c1	19.1%
Cc1nc(C)n(CC2CN(CCOc3cccc(F)c3)CCO2)n1 (stereo not drawn)	-9.64%
C1CN(Cc2noc(C3CC3)n2)CCN(Cc2nnc(C3CC3)o2)C1	15.4%
CC(Cn1cccn1)NC(=O)CCC(=O)c1cccs1 (stereo not drawn)	-11.2%
Cn1ccc(C(=O)NCc2ccc(N3CCCCCC3)nc2)cc1=O	-12.5%
COc1ccc(CNC(=O)N2CCC(Cc3cnn(C)c3)C2)cc1C (stereo not drawn)	-3.46%
O=C(NCc1nn(-c2ccccc2)c2c1CCC2)NC1CC1	-19%
Cc1cc(C)n(C2CCCN(C(=O)COCC(F)(F)F)C2)n1 (stereo not drawn)	-22.5%
c1cnnc(N2CCCC2CNCc2nc(C3CC3)no2)c1 (stereo not drawn)	-11.8%
CC(=O)N(Cc1noc(C2CC2)n1)C1CCN(Cc2ccncc2)C1 (stereo not drawn)	19.8%

SMILES	cytotoxicity at 70.5 h
CCc1nc(C2CCCN2C(=O)c2nccnc2N)no1 (stereo not drawn)	-18.5%
Cc1cnn(CC2CCCN2C(=O)c2ccc3nnc(C)n3c2)c1 (stereo not drawn)	-1.07%
CCc1nc(C)ncc1C(=O)N1CCCC(n2nc(C)nc2C)C1 (stereo not drawn)	-12%
CSC(C)C(=O)N1CCCN(Cc2cscn2)CC1 (stereo not drawn)	17.9%
CC(Cn1ccnc1)NC(=O)NCCNC(=O)C(C)C (stereo not drawn)	16.2%
Cc1ccc(OCC(=O)NS(=O)(=O)c2cccnc2)cc1C	23.3%
COc1cccc(CNCc2c(C(C)C)nn(C)c2N(C)C)c1OC	-3.04%
CC(C)Cc1noc(CN2CCN(CCO)CC2)n1	-4.77%
CC(C)Cc1noc(CN2CCOCC2)n1	-0.996%
Cc1nn(C)c(N(C)C)c1CNCc1cccc(OCCN(C)C)c1	27.3%
CCn1ccnc1CN1CCN(CC(=O)NC(C)(C#N)C2CC2)CC1 (stereo not drawn)	-6.12%
CCn1ccnc1CN1CCN(CC(=O)NC(=O)NC2CC2)CC1	-8.53%
COc1ccc(OC)c(CCNC(=O)NC(C)Cn2ccnc2)c1 (stereo not drawn)	22%
CCOCC(O)CN1CCN(C(=O)Cc2ccccc2C)CC1 (stereo not drawn)	-1.93%
COc1ccccc1CCNC(=O)CN1CCCC1c1noc(C)n1 (stereo not drawn)	-3.07%
Cc1cc(C)c(OCC(=O)NS(=O)(=O)c2cccnc2)c(C)c1	-3.3%
Cc1oc(C)c(C(=O)NCc2cccnc2N(C)C)c1C	-12.5%
Cc1cc(C)n(CC(=O)N2CCC(NS(C)(=O)=O)CC2)n1	-11.4%
CC(Cc1ccco1)NC(=O)Nc1ccc(N2CCOCC2)nc1 (stereo not drawn)	-4.87%
COc1cc(CNC(=O)Nc2cc(C(F)(F)F)c[nH]c2=O)ccn1	1.69%
N#Cc1cn(C2CC2)c(=O)n(CC(O)c2ccc(OC(F)F)cc2)c1=O (stereo not drawn)	-17.5%
Cc1cc(NC(=O)NCC(C)O)n(C)n1 (stereo not drawn)	0.0779%
Cc1cc(C)c(CNC(=O)N2CCN(c3cnccn3)CC2)c(=O)[nH]1	-4.71%
CCn1ccnc1CN1CCN(C(C)C(=O)NC2CCCCC2)CC1 (stereo not drawn)	33.2%

SMILES	cytotoxicity at 70.5 h
O=C(c1cccc2c1OCCO2)N1CCCC(n2ccnc2)C1 (stereo not drawn)	-5.73%
Cc1cc(NC(=O)NCC(O)c2ccc(Cl)cc2Cl)n(C)n1 (stereo not drawn)	-11.8%
Cc1nnc2n1CCN(C(=O)c1cc(Cl)c(Cl)n1C)C2	-3.86%
CCc1nc(CC(=O)N2CCn3c(nnc3C(C)C)C2)cs1	0.586%
CCOCC(O)CN1CCN(C(=O)Cc2ccccc2Cl)CC1 (stereo not drawn)	-0.667%
CCc1nc(CC(=O)N2CCn3c(nnc3C(F)(F)F)C2)cs1	-7.01%
COc1ccccc1CC(=O)NCc1c(C)nc2cc(=O)[nH]n2c1C	-8.5%
c1ccc(-c2noc(CN3CCc4cncnc4C3)n2)nc1	-9.29%
Cc1nc(C2CCCN2CC(=O)NCCOc2ccccc2)no1 (stereo not drawn)	0.566%
COc1cc(CNc2cnn(C)c2)cc2c1OCCO2	-4.12%
Cc1ncsc1C(=O)N(C)Cc1cccc(Cl)c1	9.51%
O=C(Cn1nc(-c2ccc(F)cc2)oc1=O)Nc1ccccc1	13.9%
Cc1ccc(C(=O)Nc2cn[nH]c2)cn1	-1.81%
Cc1cc(CN(C)C(=O)NC2CCN(Cc3ccccc3)C2)no1 (stereo not drawn)	7.2%
CN(Cc1ccccc1O)C(=O)NC1CCCN(c2ncccn2)C1 (stereo not drawn)	22.3%
CCn1cc(NC(=O)NCC(O)COc2cccc(F)c2)cn1 (stereo not drawn)	-4.45%
CCN(CC)C(=O)Cn1ccc2cc(NC(=O)C3CCCO3)ccc21 (stereo not drawn)	7.81%
CC(=O)c1cccc(OCCCC(=O)NCC2CCCN2C)c1 (stereo not drawn)	7.09%
CC(Cn1ccnc1)NC(=O)N1CCN(Cc2cccnc2)CC1 (stereo not drawn)	0.583%
Cc1nc(CNC(=O)Cn2nc(-c3ccc(F)cc3)oc2=O)cs1	0.339%
CSc1sc(NC(=O)Cc2c(C)nc(C)[nH]c2=O)nc1C	3.66%
O=C(Nc1ncn(CC(=O)N2CCCCCC2)n1)C1CCCO1 (stereo not drawn)	2.64%
NC(=O)c1cnn2c1NCC(CNCCCOc1ccccc1F)C2 (stereo not drawn)	6.81%
Cc1ccc(C(=O)N2CCN(C(=O)NC(C)Cn3ccnc3)CC2)o1 (stereo not drawn)	-4.96%

SMILES	cytotoxicity at 70.5 h
CC(C)c1nnc2n1CCN(C(=O)CN1Cc3ccccc3C1=O)C2	4.15%
NC(=O)c1cnn2c1NCC(CNCCc1ccco1)C2 (stereo not drawn)	-1.07%
Cc1cnn(CC2CCCCN2Cc2noc(C3CC3)n2)c1 (stereo not drawn)	-6.32%
Cc1nc(C)n(CC2CN(c3nnc(C)c(C)c3C#N)CCO2)n1 (stereo not drawn)	5.76%
CNS(=O)(=O)c1ccc(C(=O)NC2CCc3nc(C)cn3C2)o1 (stereo not drawn)	-6.79%
Cc1cn2c(n1)CCC(NC(=O)c1ccc(CS(C)(=O)=O)cc1)C2 (stereo not drawn)	-1.89%
CN(C(=O)NCc1ccncc1)C1CCN(c2ccccc2)C1=O (stereo not drawn)	11.5%
O=C(Nc1ccccc1F)N(CCO)Cc1ccsc1	31.8%
Cc1ncsc1C(=O)N(C)CCc1ccncc1	-2.51%
CC(=O)N1CCN(Cc2csc(-c3cnn(C)c3)n2)CC1	2.34%
CC(C)c1nnc2n1CCN(CC(=O)N1CCc3ccccc3C1)C2	11.4%
Cn1cc(Cl)cc1C(=O)N1CCN(Cc2ccsc2)CC1	0.559%
Cc1nn(C)c(C)c1CC(=O)N1CCC(N(C)c2cccnn2)CC1	20.4%
COCC(c1cccc(C(F)(F)F)c1)N(C)C(=O)c1cc(C)no1 (stereo not drawn)	20%
COCC(=O)NCc1cccc(Br)c1	19.4%
O=C(CN1CCC(c2cccc(F)c2)C1)NCC(F)(F)F (stereo not drawn)	26.9%
Cc1nc(C2CCCN2CCCS(=O)(=O)N(C)C)no1 (stereo not drawn)	22.2%
CCCn1[nH]cc/c1=N\C(=O)CN1CCn2c(nnc2C2CC2)C1	8.11%
CCN1CCN(C(=O)c2cc(C(=O)OC)nn2-c2ccccc2)CC1	0.312%
CSCCCN1CCCC1c1noc(C)n1 (stereo not drawn)	1.11%
Cc1cnn(CCNCc2csc(-c3ccc4c(c3)OCO4)n2)c1	10.2%
Cc1nn(C)c(N(C)C)c1CNC1CCc2c(F)cccc21 (stereo not drawn)	7.05%
